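Step 1: Grow cells in 96-well plates. Step 2: Expose to compound for 48 hours at 5 concentrations. Step 3: Interpolate endpoints linearly; if unreached, use highest concentration. At the TGI there is no net growth.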 Where a SMILES comes first, the peptide text is derived from it. The star is where a group is joined. Boc = CC(C)(C)OC(=O)*

Some test systems named below: SF-295 CNS; BT-549 breast; SK-OV-3 ovarian; OVCAR-8 ovarian; MDA-MB-231 breast; HCT-116 colon; MOLT-4 leukemia; T-47D breast; NCI-H522 lung; MDA-MB-435; LOX IMVI melanoma; CCRF-CEM leukemia; SF-268 CNS; NCI-H226 lung; DU-145 prostate; M14 melanoma; SNB-75 CNS; RPMI-8226 leukemia.
Holding throughout (assay): growth of human tumour cells (NCI), 48 h

As to `NC12CC3CC4C1CC1CC2C(C3)C4(N)C1`, the TGI with SF-295 CNS, in the test with BT-549 breast, with SK-OV-3 ovarian, in the test with OVCAR-8 ovarian, with MDA-MB-231 breast and in the test with HCT-116 colon was more than 100 µM in each case. Also, the TGI with MOLT-4 leukemia, with T-47D breast, in the test on NCI-H522 lung, in the test on MDA-MB-435, in the test with LOX IMVI melanoma and in the test with CCRF-CEM leukemia was more than 100 µM throughout. Besides, the TGI in the test with SF-268 CNS, in the test with NCI-H226 lung, in the test on DU-145 prostate and in the test with M14 melanoma was more than 100 µM in each case.

With `O=C(CCc1ccccc1CO)NCCc1ccccc1`, the TGI with SF-295 CNS, with BT-549 breast, with SK-OV-3 ovarian, in the test with OVCAR-8 ovarian, with MDA-MB-231 breast and with HCT-116 colon was more than 100 µM in each case. Also, the TGI in the test on MOLT-4 leukemia, in the test on T-47D breast, in the test on NCI-H522 lung, with SNB-75 CNS, in the test with MDA-MB-435 and with RPMI-8226 leukemia was more than 100 µM in each case. Besides, the TGI with CCRF-CEM leukemia, with SF-268 CNS, in the test with NCI-H226 lung, in the test with DU-145 prostate and with M14 melanoma was more than 100 µM throughout.

Regarding `CCOCC(NC(=O)C(CC(C)C)NC(=O)OC(C)(C)C)C(N)=O` (stereo not drawn) (Boc-Leu-Ser(Et)-NH2; configuration not given here), the TGI in the test with SF-295 CNS, in the test with BT-549 breast, with SK-OV-3 ovarian, in the test on OVCAR-8 ovarian, in the test with MDA-MB-231 breast and in the test with HCT-116 colon was more than 100 µM in each case. Further, the TGI in the test with MOLT-4 leukemia, in the test on T-47D breast, in the test with NCI-H522 lung, in the test with SNB-75 CNS, in the test on MDA-MB-435 and with LOX IMVI melanoma was more than 100 µM throughout. Further, the TGI with CCRF-CEM leukemia, in the test on SF-268 CNS, in the test with NCI-H226 lung, in the test on DU-145 prostate and with M14 melanoma was more than 100 µM in each case.

Turning to `COc1ccc(-n2c3c(c4c(CN(C)C)c(O)ccc42)C(=O)c2ccccc2C3=O)cc1`, the TGI in the test with SF-295 CNS was found to be 33.2 µM; in the test on BT-549 breast it was 35.9 µM; in the test on SK-OV-3 ovarian, 8.01 µM; in the test on OVCAR-8 ovarian it was 20.5 µM; in the test on MDA-MB-231 breast, 7.67 µM; with HCT-116 colon, 3.98 µM. Also, the TGI in the test on MOLT-4 leukemia is more than 100 µM; with T-47D breast, 6.99 µM; in the test with NCI-H522 lung it was 30.7 µM; with MDA-MB-435, 30.9 µM; with LOX IMVI melanoma it was 7 µM; in the test with RPMI-8226 leukemia, 4.88 µM. Further, the TGI amounted to 8.35 µM with CCRF-CEM leukemia, 44.9 µM with SF-268 CNS, 29.2 µM with DU-145 prostate and 11.8 µM with M14 melanoma.

Regarding `O=c1c(-c2ccccc2Cl)coc2cc(F)ccc12`, the TGI with SF-295 CNS is 48.6 µM; with BT-549 breast it was 48.5 µM; in the test with SK-OV-3 ovarian, more than 100 µM; in the test with OVCAR-8 ovarian, more than 100 µM; with MDA-MB-231 breast it was 67.3 µM; in the test with HCT-116 colon, more than 100 µM. Moreover, the TGI is more than 100 µM in the test on MOLT-4 leukemia; more than 100 µM in the test with T-47D breast; 36.5 µM in the test with NCI-H522 lung; 54.5 µM with SNB-75 CNS; 4.31 µM in the test with MDA-MB-435; 35.3 µM in the test with LOX IMVI melanoma. Moreover, the TGI is more than 100 µM with CCRF-CEM leukemia; more than 100 µM in the test with SF-268 CNS; more than 100 µM with NCI-H226 lung; 83.9 µM with DU-145 prostate; 55.6 µM in the test with M14 melanoma.

`CN[C@@H](C)[C@H](OP(=O)(O)OC1[C@@H](O)[C@H](O)C(O)[C@H](O)[C@@H]1O)c1ccccc1` (stereo partly drawn): the TGI in the test with SF-295 CNS, in the test on BT-549 breast, with SK-OV-3 ovarian, in the test with OVCAR-8 ovarian, with MDA-MB-231 breast and with HCT-116 colon was more than 100 µM each time. The TGI in the test with MOLT-4 leukemia, in the test with T-47D breast, with NCI-H522 lung, in the test with SNB-75 CNS, in the test with MDA-MB-435 and in the test on RPMI-8226 leukemia was more than 100 µM each time. Further, the TGI with CCRF-CEM leukemia, with SF-268 CNS, with NCI-H226 lung, with DU-145 prostate and in the test on M14 melanoma was more than 100 µM in each case.

As to `CCCC#CC(O)(C(=O)OC1CCN(C)CC1)C1CCCCC1` (stereo not drawn), the TGI in the test on SF-295 CNS, in the test with BT-549 breast, in the test on SK-OV-3 ovarian, in the test with OVCAR-8 ovarian, with MDA-MB-231 breast and in the test on HCT-116 colon was more than 100 µM each time. Moreover, the TGI in the test on MOLT-4 leukemia, in the test with T-47D breast, with SNB-75 CNS, in the test with MDA-MB-435, in the test on LOX IMVI melanoma and in the test with RPMI-8226 leukemia was more than 100 µM in each case. Moreover, the TGI with CCRF-CEM leukemia, with SF-268 CNS, in the test on NCI-H226 lung, in the test on DU-145 prostate and in the test with M14 melanoma was more than 100 µM each time.

With `COc1cc(C(=O)Nc2c3ccccc3nc3ccccc23)cc(OC)c1OC`, the TGI in the test with SF-295 CNS, in the test with BT-549 breast, in the test on SK-OV-3 ovarian, with OVCAR-8 ovarian, in the test with MDA-MB-231 breast and in the test with HCT-116 colon was more than 100 µM each time. In addition, the TGI in the test with MOLT-4 leukemia, with T-47D breast, with NCI-H522 lung, in the test with MDA-MB-435, with LOX IMVI melanoma and with RPMI-8226 leukemia was more than 100 µM in each case. Further, the TGI with CCRF-CEM leukemia was more than 100 µM; in the test with SF-268 CNS, more than 82 µM; with NCI-H226 lung, more than 100 µM; in the test with DU-145 prostate, more than 100 µM; in the test with M14 melanoma, more than 100 µM.

As for `C/C(=N\O)c1cccc(Nc2nc3ccccc3c3occc23)c1`, the TGI came out at 22.6 µM in the test with SF-295 CNS; 26.9 µM in the test with BT-549 breast; 28.7 µM with SK-OV-3 ovarian; 32.8 µM in the test on OVCAR-8 ovarian; 26.4 µM in the test with MDA-MB-231 breast; 25.8 µM in the test with HCT-116 colon. Besides, the TGI was found to be 32.9 µM in the test on MOLT-4 leukemia; 44.7 µM in the test on T-47D breast; 32.3 µM in the test on SNB-75 CNS; 24 µM in the test with MDA-MB-435; 33.2 µM with LOX IMVI melanoma; 31.8 µM in the test on RPMI-8226 leukemia. The TGI in the test on CCRF-CEM leukemia came to 31 µM; in the test on SF-268 CNS, 27.6 µM; in the test with NCI-H226 lung, 16.5 µM; in the test with DU-145 prostate it was 27.8 µM; in the test with M14 melanoma it was 29.7 µM.

In the case of `OCCN=C1c2ccccc2C2C(c3ccccc31)C1c3ccccc3C(=NCCO)c3ccccc3C21` (stereo not drawn), the TGI in the test with SF-295 CNS was 30.6 µM; with BT-549 breast, 52.3 µM; in the test with SK-OV-3 ovarian it was 61.5 µM; in the test with OVCAR-8 ovarian, more than 100 µM; with MDA-MB-231 breast it was 31.4 µM; in the test on HCT-116 colon it was 30.3 µM. Moreover, the TGI in the test with MOLT-4 leukemia came to 27.6 µM; in the test with T-47D breast, 97 µM; with SNB-75 CNS, 65.9 µM; in the test on MDA-MB-435, 40.9 µM; with LOX IMVI melanoma it was 52.6 µM; with RPMI-8226 leukemia, 37.2 µM. Besides, the TGI in the test with CCRF-CEM leukemia is 35.9 µM; in the test on SF-268 CNS it was more than 100 µM; in the test with NCI-H226 lung, 17.8 µM; in the test with DU-145 prostate, 54.3 µM; in the test with M14 melanoma it was 42.3 µM.

As to `N#CC(N=Nc1ccccc1)c1nc2ccccc2o1` (stereo not drawn), the TGI in the test on SF-295 CNS came out at 35.5 µM; in the test with BT-549 breast it was 46 µM; in the test on SK-OV-3 ovarian, 68 µM; in the test with OVCAR-8 ovarian, 79.4 µM; with MDA-MB-231 breast it was 57.4 µM; in the test with HCT-116 colon, 57.5 µM. The TGI is more than 100 µM with MOLT-4 leukemia; 39.9 µM in the test on T-47D breast; more than 100 µM with NCI-H522 lung; more than 100 µM in the test on MDA-MB-435; more than 100 µM in the test on RPMI-8226 leukemia; more than 100 µM in the test on CCRF-CEM leukemia. Besides, the TGI with SF-268 CNS is 59.9 µM; in the test on NCI-H226 lung, more than 100 µM; in the test with DU-145 prostate, 72.4 µM; in the test with M14 melanoma, more than 100 µM.

For the compound `CC(C)(C)OC(=O)Nc1cc(-c2ccccc2)co1`, the TGI in the test with SF-295 CNS, with BT-549 breast, with SK-OV-3 ovarian, with OVCAR-8 ovarian, with MDA-MB-231 breast and in the test on HCT-116 colon was more than 100 µM each time. The TGI in the test with MOLT-4 leukemia was more than 100 µM; in the test with T-47D breast, more than 100 µM; with NCI-H522 lung, 69.1 µM; with MDA-MB-435, more than 100 µM; in the test with LOX IMVI melanoma it was more than 100 µM; with RPMI-8226 leukemia, more than 100 µM. In addition, the TGI in the test with CCRF-CEM leukemia is more than 100 µM; in the test with SF-268 CNS, 94.4 µM; in the test with NCI-H226 lung, more than 100 µM; in the test with DU-145 prostate, more than 100 µM; in the test with M14 melanoma, more than 100 µM.

Regarding `COc1ccc2c(c1)CCCN1CCc3cc(OC)c(OC)cc3C21` (stereo not drawn), the TGI was more than 100 µM with SF-295 CNS; 43.2 µM with BT-549 breast; more than 100 µM with SK-OV-3 ovarian; more than 100 µM in the test with OVCAR-8 ovarian; more than 100 µM in the test on MDA-MB-231 breast; more than 100 µM with HCT-116 colon. Further, the TGI in the test on MOLT-4 leukemia, in the test on T-47D breast, in the test with SNB-75 CNS, in the test with MDA-MB-435, in the test with LOX IMVI melanoma and with RPMI-8226 leukemia was more than 100 µM throughout. For the same compound, the TGI in the test with CCRF-CEM leukemia, in the test with SF-268 CNS, in the test with NCI-H226 lung, in the test on DU-145 prostate and in the test with M14 melanoma was more than 100 µM each time.

For the origin of these results see PubChem BioAssay (NCI).
